Test results as given in ChEMBL document CHEMBL5528007, “Synthetic GPR40/FFAR1 agonists: An exhaustive survey on the most recent chemical classes and their structure-activity relationships” (Eur J Med Chem, 2024).

Assays:
[1] = target: T1, Free fatty acid receptor 1 (Homo sapiens, UniProt O14842); test: Agonist activity at human FFA1 stably expressed in CHO cells at 300 nM by Fluo4-AM dye based intracellular calcium flux FLIPR assay relative to control; type: functional, cell-based
[2] = target: T1, Free fatty acid receptor 1; test: Agonist activity at human recombinant GPR40 stably expressed in HEK293 cells at 0.1 uM incubated for 24 hrs by FLIPR assay relative to control; type: functional, cell-based
[3] = target: T1, Free fatty acid receptor 1; test: Agonist activity at human FFA1 expressed in CHO cells by Fluo4-AM dye based intracellular calcium flux assay; type: functional, cell-based
GPR40-Galpha16 = GPR40-Galpha16 (Homo sapiens, UniProt O14842+P30679); test: Agonist activity at human GPR40/Galpha-16 expressed in HEK293 cells by Fluo4-AM dye based intracellular calcium flux assay
Chain of GPR40-Galpha16 (O14842 whole entry): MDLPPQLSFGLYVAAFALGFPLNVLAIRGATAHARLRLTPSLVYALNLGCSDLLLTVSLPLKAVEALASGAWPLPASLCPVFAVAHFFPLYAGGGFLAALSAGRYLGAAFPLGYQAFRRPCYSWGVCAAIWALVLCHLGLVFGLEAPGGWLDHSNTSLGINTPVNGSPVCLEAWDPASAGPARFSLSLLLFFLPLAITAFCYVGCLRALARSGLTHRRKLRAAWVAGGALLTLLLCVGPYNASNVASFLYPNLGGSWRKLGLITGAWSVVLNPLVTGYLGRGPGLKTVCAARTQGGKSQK
Chain of GPR40-Galpha16 (P30679 whole entry): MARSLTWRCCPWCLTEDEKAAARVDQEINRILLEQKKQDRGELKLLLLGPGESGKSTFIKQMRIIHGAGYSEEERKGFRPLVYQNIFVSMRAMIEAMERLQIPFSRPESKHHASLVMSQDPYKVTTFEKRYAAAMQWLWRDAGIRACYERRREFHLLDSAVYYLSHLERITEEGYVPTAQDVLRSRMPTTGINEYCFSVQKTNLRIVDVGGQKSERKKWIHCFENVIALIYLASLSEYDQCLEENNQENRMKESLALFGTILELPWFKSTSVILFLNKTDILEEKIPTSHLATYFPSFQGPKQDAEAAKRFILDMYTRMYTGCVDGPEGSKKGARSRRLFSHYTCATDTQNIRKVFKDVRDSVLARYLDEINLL

[4] = target: T1, Free fatty acid receptor 1; test: Agonist activity at human recombinant GPR40 expressed in CHO cells by Fluo4-AM dye based intracellular calcium flux assay relative to control; type: functional, cell-based
[5] = target: T2, Peroxisome proliferator-activated receptor gamma (Homo sapiens) (UniProt P37231); test: Agonist activity at PPARgamma (unknown origin) assessed as fold increase in calcium by Fluo4-AM dye based intracellular calcium flux assay; type: cell-based; settings: filed as agonist
T2 sequence (whole entry): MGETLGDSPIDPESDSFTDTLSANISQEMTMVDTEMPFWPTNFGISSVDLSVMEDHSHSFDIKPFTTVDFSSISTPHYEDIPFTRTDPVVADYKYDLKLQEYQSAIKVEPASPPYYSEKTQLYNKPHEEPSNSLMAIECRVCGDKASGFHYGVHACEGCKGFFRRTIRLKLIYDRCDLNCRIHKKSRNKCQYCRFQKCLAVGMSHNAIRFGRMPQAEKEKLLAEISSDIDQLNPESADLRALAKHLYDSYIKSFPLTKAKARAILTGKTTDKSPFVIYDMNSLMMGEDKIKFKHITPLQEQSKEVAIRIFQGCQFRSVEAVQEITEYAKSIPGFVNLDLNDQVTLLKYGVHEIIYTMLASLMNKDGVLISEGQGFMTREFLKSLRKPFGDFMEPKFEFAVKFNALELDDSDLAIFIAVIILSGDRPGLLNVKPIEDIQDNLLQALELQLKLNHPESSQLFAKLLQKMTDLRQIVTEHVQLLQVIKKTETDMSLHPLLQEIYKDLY

[6] = target: T1, Free fatty acid receptor 1; test: Agonist activity at human GPR40 expressed in HEK293 cells by Fluo4-AM dye based intracellular calcium flux assay; type: functional, cell-based
[7] = target: T1, Free fatty acid receptor 1; test: Agonist activity at human recombinant FFA1 stably expressed in CHO cells assessed as increase in calcium flux by Fluo4-AM dye based FLIPR assay; type: functional, cell-based
[8] = target: T1, Free fatty acid receptor 1; test: Agonist activity at human […] expressed in HEK293 cells incubated for 40 mins by Fluo4-AM dye based intracellular calcium flux assay; type: functional, cell-based
[9] = target: T1, Free fatty acid receptor 1; test: Agonist activity at human GPR40 stably expressed in CHO cells assessed as increase in intracellular calcium concentration by FLIPR assay; type: functional, cell-based

T1 sequence (O14842 whole entry): as the sequence (O14842 whole entry) above

Question: Cc1ccc(S(=O)(=O)Nc2cccc(COc3ccc4c(c3)OCC4CC(=O)O)c2)cc1 (configuration not stated) was tested. Which Activity [1] did it give?
Answer: 23.7%

Question: How did the Activity ([1]; filed as agonist) turn out when O=C(O)CC1COc2cc(OCc3cccc(NC(=O)c4coc5ccccc45)c3)ccc21 (configuration not stated) was run?
Answer: 50.4%

Question: Cc1ccc(O[C@H]2CCOC2)cc1-c1cc(COc2ccc(OCC(=O)O)cc2)cc2c1OCC2 was tested. Which Activity [2] did it give?
Answer: 1.8%

Question: How did the Activity ([2]; filed as agonist) turn out when Cc1cc(O[C@H]2CCOC2)cc(C)c1-c1cccc2c1CC[C@H]2Oc1ccc(OCC(=O)O)cc1 was run?
Answer: 47%

Question: Which EC50 [3] does the source give for [2H]C([2H])(Cc1ccc(OCc2cccc(-c3c(C)cc(OCCCS(C)(=O)=O)cc3C)c2)cc1)C(=O)O here?
Answer: 72.2 nM

Question: For O=C(O)CCc1ccc(NCc2cccc(Oc3ccccc3)c2)cc1 [GW9508], which EC50 (GPR40-Galpha16) is on record?
Answer: 48 nM

Question: O=C(O)C[C@@H](c1ccc(O[C@@H]2CCc3c2ccc(C(F)(F)F)c3CN2CCCCCC2)cc1)c1ccon1 was tested. Which Activity ([4]; filed as agonist) did it give?
Answer: 48.2%

Question: How did the fold change (FC) [5] turn out when O=C(O)COc1ccc(NC(=O)CSc2nc3ccccc3[nH]2)cc1 was run?
Answer: 2

Question: Which EC50 [3] does the source give for [2H]C([2H])(Cc1ccc(OCc2cccc(-c3c(C)cccc3C)c2)cc1)C(=O)O here?
Answer: 42.7 nM

Question: CC1CCN(Cc2c(C(F)(F)F)ccc3c2CC[C@H]3Oc2ccc([C@H](CC(=O)O)c3ccon3)cc2)CC1 was tested. Which Activity ([4]; filed as agonist) did it give?
Answer: 55.1%

Question: For O=C(O)CC1COc2cc(OCc3cccc(O/C=C/Oc4ccccc4)c3)ccc21 (configuration not stated), which Activity ([1]; filed as agonist) is on record?
Answer: 52.7%

Question: How did the EC50 [6] turn out when CC(C)(CCCCCCCCCCC(C)(C)CC(=O)O)CC(=O)O was run?
Answer: 1220 nM

Question: Which Activity ([2]; filed as agonist) does the source give for Cc1ccc(O[C@H]2CCOC2)cc1-c1cccc2c1CC[C@H]2Oc1ccc(OCC(=O)O)cc1 here?
Answer: 51.7%

Question: For COc1ccc2[nH]c(SCC(=O)Nc3ccc(OCC(=O)O)cc3)nc2c1, which fold change (FC) [5] is on record?
Answer: 2

Question: For Cc1ccccc1-c1cccc(COc2ccc(OCC(=O)O)c(F)c2)c1, which EC50 [7] is on record?
Answer: 1390 nM

Question: With [2H]C([2H])(Cc1ccc(OCc2cccc(-c3ccccc3C)c2)cc1)C(=O)O as the compound, how does the EC50 [3] read?
Answer: 19.1 nM

Question: For O=C(O)CCc1ccc(OCc2ccc3ccccc3n2)cc1, which EC50 [8] is on record?
Answer: 100000 nM

Question: Cc1cccc(C(=O)Nc2ccc(CC(=O)O)cc2)c1 was tested. Which EC50 [9] did it give?
Answer: 13200 nM

Question: How did the Activity [4] turn out when O=C(O)C[C@@H](c1ccc(O[C@@H]2CCc3c2ccc(C(F)(F)F)c3CN2CCCCC2)cc1)c1ccon1 was run?
Answer: 16.5%

Question: For O=C(O)C[C@@H](c1ccc(O[C@@H]2CCc3c2ccc(C(F)(F)F)c3CN2CCC(F)CC2)cc1)c1ccon1, which Activity ([4]; filed as agonist) is on record?
Answer: 45.2%

Question: O=C(O)CC1COc2cc(OCc3cccc(OCc4ccccc4)c3)ccc21 (configuration not stated) was tested. Which Activity [1] did it give?
Answer: 23.5%

Question: Cc1ccc(O[C@H]2CCOC2)cc1-c1cc(COc2ccc(OCC(=O)O)cc2)cc2c1CCC2 was tested. Which Activity ([2]; filed as agonist) did it give?
Answer: 133%
